Laboratory results: US20250032651A1, “[177LU] LUTETIUM-PSMA I&T COMPOSITION AND DOSIMETRY, KIT, METHOD OF MAKING, AND METHOD OF USING THEREOF” (Curium US LLC, priority 2022, published 2025)
Values joined by “and” are separate entries in the source; they are usually repeats but may differ in a detail not shown here. Equal values may be shown once.

Assay: Plasma PK: gamma-counted plasma radioactivity, bi-exponential fit
Assay type: in vivo, human
Procedure: Additionally, for PK assessment, whole blood samples were collected at six timepoints (Pre-Infusion, 1 h, 4 h, 24 h, 48 h, and 168 h) and processed to extract plasma. All plasma samples were gamma counted locally for analysis of pharmacokinetics.
PK plasma samples were collected at pre-Infusion, 1 h, 4 h, 24 h, 48 h, and 168 h, and counted for radioactivity. Blood samples were first centrifuged to extract plasma, and then the radioactivity in plasma was counted in a gamma counter.
Whole blood samples were collected as detailed in the protocol Schedule of Events i.e. pre-injection, and then at 1 h, 4 h, 24 h, 48 h, and 168 h post-injection. The samples were first centrifuged to separate plasma, and the radioactivity in the plasma was then measured using a gamma counter. Plasma concentrations were subsequently fitted with a bi-exponential function to derive outcome parameters such as the half-life and clearance rate of the radiopharmaceutical in the plasma.

[1] = Cycle 1, plasma radioactivity, bi-exponential fit
[2] = plasma, Cycle 1, excluding patient 42-030
[3] = plasma, Cycle 1, individual patient values
[4] = plasma, Cycle 1, individual patients

O=C([O-])CC[C@H](NC(=O)N[C@@H](CCCCNC(=O)CCCCCCC(=O)NCCCC[C@@H](NC(=O)[C@@H](Cc1ccccc1)NC(=O)[C@@H](Cc1ccc(O)c(I)c1)NC(=O)CC[C@H](C(=O)[O-])N1CCN(CC(=O)[O-])CCN(CC(=O)[O-])CCN(CC(=O)[O-])CC1)C(=O)[O-])C(=O)[O-])C(=O)[O-].[177Lu+3].[H+].[H+].[H+].[H+].[H+] [^177Lu-PSMA I&T, (3S,7S,26R,29R,32R,37R)-29-benzyl-32-(4-hydroxy-3-iodobenzyl)-5,13,20,28,31,34-hexaoxo-37-(4,7,10-tris(carboxymethyl)-1,4,7,10-tetraazacyclododecan-1-yl)-4,6,12,21,27,30,33-heptaazaheptatriacontane-1,3,7,26,37-pentacarboxylic acid; lutetium-177 (III)]
plasma clearance (Cycle 1): 13.06 ± 16.50 L/h
plasma half-life, outlier value (Cycle 1, patient 42-030 (superscan)): 113.96 h
time to peak plasma concentration (Cycle 1, patient 80-007, first post-administration sample delayed): 127 min
plasma mean distribution half-life [1]: 1.89 ± 0.34 h
plasma mean elimination half-life [1]: 14.7 ± 10.1 h and 14.70 ± 10.10 h
distribution volume (Cycle 1 plasma PK): moderate-to-high
AUC Total (plasma, Cycle 1, Mean): 22.77 fIA/L × min
Clearance Rate (plasma, Cycle 1, Mean): 13.06 L/h
Peak Concentration Value (plasma, Cycle 1, Mean): 0.04 fIA/L
Time of Peak Concentration (plasma, Cycle 1, Mean): 59.19 min
Vc (plasma, Cycle 1, Mean): 20.29 L
Vd (plasma, Cycle 1, Mean): 234.64 L
AUC Total, Mean [2]: 22.77 fIA/L x min
AUC Total, max [2]: 37.86 fIA/L x min
AUC Total, median [2]: 20.84 fIA/L x min
AUC Total, min [2]: 3.07 fIA/L x min
Clearance Rate, Mean [2]: 13.06 L/h
Clearance Rate, max [2]: 89.38 L/h
Clearance Rate, median [2]: 9.79 L/h
Clearance Rate, min [2]: 2.89 L/h
Distribution Half-Life, Mean [2]: 1.89 h
Distribution Half-Life, max [2]: 2.42 h
Distribution Half-Life, median [2]: 1.93 h
Distribution Half-Life, min [2]: 1.14 h
Elimination Half-Life, Mean [2]: 14.70 h
Elimination Half-Life, max [2]: 53.30 h
Elimination Half-Life, median [2]: 10.52 h
Elimination Half-Life, min [2]: 8.16 h
Peak Concentration Value, Mean [2]: 0.04 fIA/L
Peak Concentration Value, max [2]: 0.07 fIA/L
Peak Concentration Value, median [2]: 0.04 fIA/L
Peak Concentration Value, min [2]: 0.01 fIA/L
Time of Peak Concentration [2]: 33.00 min
Time of Peak Concentration, Mean [2]: 59.19 min
Time of Peak Concentration, max [2]: 127.00 min
Time of Peak Concentration, median [2]: 59.00 min
Vc, Mean [2]: 20.29 L
Vc, max [2]: 111.78 L
Vc, median [2]: 16.33 L
Vc, min [2]: 9.92 L
distribution volume (column headed "Patient"), Mean [2]: 234.64
distribution volume (column headed "Patient"), max [2]: 1365.03
distribution volume (column headed "Patient"), median [2]: 157.12
distribution volume (column headed "Patient"), min [2]: 54.60
AUC Total [3]: 30.05 fIA/L x min and 27.64 fIA/L x min and 20.58 fIA/L x min and 19.49 fIA/L x min and 3.07 fIA/L x min and 25.59 fIA/L x min and 25.58 fIA/L x min and 21.49 fIA/L x min and 26.70 fIA/L x min and 31.83 fIA/L x min and 15.14 fIA/L x min and 28.67 fIA/L x min and 17.09 fIA/L x min and 19.85 fIA/L x min and 34.96 fIA/L x min and 24.13 fIA/L x min and 13.46 fIA/L x min and 17.93 fIA/L x min and 18.79 fIA/L x min and 15.54 fIA/L x min and 19.50 fIA/L x min and 37.86 fIA/L x min and 21.09 fIA/L x min and 34.60 fIA/L x min and 33.81 fIA/L x min and 19.09 fIA/L x min and 15.16 fIA/L x min
Clearance Rate [3]: 3.89 L/h and 4.21 L/h and 9.97 L/h and 17.94 L/h and 89.38 L/h and 6.26 L/h and 9.62 L/h and 7.63 L/h and 2.82 L/h and 4.73 L/h and 21.26 L/h and 2.89 L/h and 20.65 L/h and 8.08 L/h and 5.73 L/h and 7.92 L/h and 17.68 L/h and 10.55 L/h and 14.19 L/h and 17.10 L/h and 10.68 L/h and 3.95 L/h and 13.78 L/h and 3.66 L/h and 4.78 L/h and 12.34 L/h and 10.74 L/h
Distribution Half-Life [3]: 1.14 h and 2.14 h and 1.88 h and 1.93 h and 1.69 h and 2.13 h and 2.19 h and 2.31 h and 1.81 h and 1.66 h and 1.78 h and 1.35 h and 1.77 h and 2.12 h and 1.92 h and 2.39 h and 1.30 h and 2.03 h and 2.42 h and 1.46 h and 2.05 h and 2.04 h and 2.22 h and 2.21 h and 1.67 h
Elimination Half-Life [3]: 9.61 h and 24.34 h and 15.32 h and 9.32 h and 10.58 h and 10.59 h and 12.43 h and 10.02 h and 10.46 h and 113.96 h and 9.19 h and 12.50 h and 53.30 h and 10.35 h and 9.28 h and 8.16 h and 8.92 h and 35.48 h and 8.68 h and 11.79 h and 19.98 h and 11.28 h and 9.41 h and 23.96 h and 16.65 h
Vc [3]: 21.87 L and 15.83 L and 16.82 L and 13.76 L and 111.78 L and 17.80 L and 11.45 L and 20.41 L and 38.22 L and 10.76 L and 18.90 L and 22.65 L and 15.26 L and 21.10 L and 9.92 L and 17.87 L and 22.51 L and 14.72 L and 16.91 L and 25.15 L and 17.72 L and 12.87 L and 15.24 L and 14.74 L and 11.55 L and 15.53 L and 14.35 L
distribution volume (column headed "Patient") [3]: 136.62 and 93.01 and 134.00 and 273.75 and 1365.03 and 112.27 and 139.07 and 115.14 and 463.99 and 62.71 and 383.51 and 222.08 and 308.54 and 108.16 and 67.50 and 118.24 and 227.51 and 540.13 and 177.78 and 291.02 and 307.91 and 64.25 and 187.12 and 54.60 and 165.33 and 296.49 and 148.91
Time of Peak Concentration (plasma, Cycle 1, individual patient values, time of first post-administration sample): 53.00 min and 60.00 min (6×) and 51.00 min (2×) and 58.00 min and 61.00 min (2×) and 50.00 min and 63.00 min and 57.00 min and 55.00 min and 52.00 min (2×) and 68.00 min and 71.00 min and 65.00 min and 33.00 min and 40.00 min and 69.00 min and 56.00 min and 127.00 min and 47.00 min
Peak Concentration Value (plasma, Cycle 1, individual patient values, value of first post-administration sample): 0.04 fIA/L (10×) and 0.03 fIA/L (4×) and 0.05 fIA/L (7×) and 0.01 fIA/L and 0.06 fIA/L (2×) and 0.02 fIA/L and 0.07 fIA/L (2×)
AUC Total [4]: 19.09 fIA/L × min and 15.16 fIA/L × min and 30.05 fIA/L × min and 27.64 fIA/L × min and 20.58 fIA/L × min and 19.49 fIA/L × min and 3.07 fIA/L × min and 25.59 fIA/L × min and 25.58 fIA/L × min and 21.49 fIA/L × min and 26.70 fIA/L × min and 31.83 fIA/L × min and 15.14 fIA/L × min and 28.67 fIA/L × min and 17.09 fIA/L × min and 19.85 fIA/L × min and 34.96 fIA/L × min and 24.13 fIA/L × min and 13.46 fIA/L × min and 17.93 fIA/L × min and 18.79 fIA/L × min and 15.54 fIA/L × min and 19.50 fIA/L × min and 37.86 fIA/L × min and 21.09 fIA/L × min and 34.60 fIA/L × min and 33.81 fIA/L × min
Clearance Rate [4]: 12.34 L/h and 10.74 L/h and 3.89 L/h and 4.21 L/h and 9.97 L/h and 17.94 L/h and 89.38 L/h and 6.26 L/h and 9.62 L/h and 7.63 L/h and 2.82 L/h and 4.73 L/h and 21.26 L/h and 2.89 L/h and 20.65 L/h and 8.08 L/h and 5.73 L/h and 7.92 L/h and 17.68 L/h and 10.55 L/h and 14.19 L/h and 17.10 L/h and 10.68 L/h and 3.95 L/h and 13.78 L/h and 3.66 L/h and 4.78 L/h
Peak Concentration Value [4]: 0.05 fIA/L (7×) and 0.04 fIA/L (10×) and 0.03 fIA/L (4×) and 0.01 fIA/L and 0.06 fIA/L (2×) and 0.02 fIA/L and 0.07 fIA/L (2×)
Time of Peak Concentration [4]: 47.00 min and 53.00 min and 60.00 min (6×) and 51.00 min (2×) and 58.00 min and 61.00 min (2×) and 50.00 min and 63.00 min and 57.00 min and 55.00 min and 52.00 min (2×) and 68.00 min and 71.00 min and 65.00 min and 33.00 min and 40.00 min and 69.00 min
Vc [4]: 15.53 L and 14.35 L and 21.87 L and 15.83 L and 16.82 L and 13.76 L and 111.78 L and 17.80 L and 11.45 L and 20.41 L and 38.22 L and 10.76 L and 18.90 L and 22.65 L and 15.26 L and 21.10 L and 9.92 L and 17.87 L and 22.51 L and 14.72 L and 16.91 L and 25.15 L and 17.72 L and 12.87 L and 15.24 L and 14.74 L and 11.55 L
Vd [4]: 296.49 L and 148.91 L and 136.62 L and 93.01 L and 134.00 L and 273.75 L and 1365.03 L and 112.27 L and 139.07 L and 115.14 L and 463.99 L and 62.71 L and 383.51 L and 222.08 L and 308.54 L and 108.16 L and 67.50 L and 118.24 L and 227.51 L and 540.13 L and 177.78 L and 291.02 L and 307.91 L and 64.25 L and 187.12 L and 54.60 L and 165.33 L
AUC Total (plasma, Cycle 1, max): 37.86 fIA/L × min
Clearance Rate (plasma, Cycle 1, max): 89.38 L/h
Peak Concentration Value (plasma, Cycle 1, max): 0.07 fIA/L
Time of Peak Concentration (plasma, Cycle 1, max): 127.00 min
Vc (plasma, Cycle 1, max): 111.78 L
Vd (plasma, Cycle 1, max): 1365.03 L
AUC Total (plasma, Cycle 1, median): 20.84 fIA/L × min
Clearance Rate (plasma, Cycle 1, median): 9.79 L/h
Peak Concentration Value (plasma, Cycle 1, median): 0.04 fIA/L
Vc (plasma, Cycle 1, median): 16.33 L
Vd (plasma, Cycle 1, median): 157.12 L
